Experimental data from PubChem BioAssay AID1845204 (Molecular Pharmacology Branch, DTP, NCI, 2023).
“And” between values parts separate entries of the source, which are not always exact repeats. Equal values may be shown once.

Test system: HSSY-II tumor spheroid viability
Assay: Anticancer human tumor HSSY-II cell line growth inhibition;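 further: spheroids exposed to compounds for seven days before reading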;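 on viability, T/C: percent of DMSO vehicle control viability so 100% = untreated level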
Conditions: spheroids with HUVEC and MSC; for viability, T/C: stronger effect = lower value
Procedure, shortened: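 Complex tumor spheroids combined malignant cells with endothelial cells and mesenchymal stem cells. DNA-damaging drugs and DNA repair inhibitors were tested alone and in combination, at half-log dilutions down from clinical Cmax (top 10 microM if Cmax unknown), 0.25% DMSO final.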

`COc1cc(C)[nH]c(=O)c1CN1CCc2c(Cl)cc(C(OC)C3COC3)c(Cl)c2C1=O` (configuration not stated) + CC[C@@]1(O)C(=O)OCc2c1cc1n(c2=O)Cc2cc3c(CN(C)C)c(O)ccc3nc2-1 gave an IC50 (curve of first compound, second compound 0.003 µM) greater than 10000 nM, an IC50 (curve of first compound, second compound 0.00949 µM) of 438 nM and an IC50 (curve of first compound, second compound 0.03 µM) of less than 31.6 nM. For the same compound, the IC50 (curve of first compound, second compound 0.0949 µM) was less than 31.6 nM, the IC50 (curve of first compound, second compound 0.3 µM) was less than 31.6 nM and the viability, T/C (second compound 0.003 µM, first compound 0.0316 µM) was 85.5%. The viability, T/C (second compound 0.003 µM, first compound 0.1 µM) was 83.2%, the viability, T/C (second compound 0.003 µM, first compound 0.316 µM) was 69.1% and the viability, T/C (second compound 0.003 µM, first compound 1 µM) was 63%. It also gave a viability, T/C (second compound 0.003 µM, first compound 3.16 µM) of 63.7%, a viability, T/C (second compound 0.003 µM, first compound 10 µM) of 56.1% and a viability, T/C (second compound 0.00949 µM, first compound 0.0316 µM) of 58.4%. The viability, T/C (second compound 0.00949 µM, first compound 0.1 µM) was 59.4%, the viability, T/C (second compound 0.00949 µM, first compound 0.316 µM) was 50.4% and the viability, T/C (second compound 0.00949 µM, first compound 1 µM) was 46%. It also gave a viability, T/C (second compound 0.00949 µM, first compound 3.16 µM) of 42.4%, a viability, T/C (second compound 0.00949 µM, first compound 10 µM) of 42.8% and a viability, T/C (second compound 0.03 µM, first compound 0.0316 µM) of 13.6%. The viability, T/C (second compound 0.03 µM, first compound 0.1 µM) was 10.9%, the viability, T/C (second compound 0.03 µM, first compound 0.316 µM) was 13.4% and the viability, T/C (second compound 0.03 µM, first compound 1 µM) was 13.3%. The viability, T/C (second compound 0.03 µM, first compound 3.16 µM) was 14.6%, the viability, T/C (second compound 0.03 µM, first compound 10 µM) was 15.1% and the viability, T/C (second compound 0.0949 µM, first compound 0.0316 µM) was 9.27%. The viability, T/C (second compound 0.0949 µM, first compound 0.1 µM) was 10.6%, the viability, T/C (second compound 0.0949 µM, first compound 0.316 µM) was 9.37% and the viability, T/C (second compound 0.0949 µM, first compound 1 µM) was 11%. It also gave a viability, T/C (second compound 0.0949 µM, first compound 3.16 µM) of 11.4%, a viability, T/C (second compound 0.0949 µM, first compound 10 µM) of 13.1% and a viability, T/C (second compound 0.3 µM, first compound 0.0316 µM) of 6.06%. It also gave a viability, T/C (second compound 0.3 µM, first compound 0.1 µM) of 6.42%, a viability, T/C (second compound 0.3 µM, first compound 0.316 µM) of 6.42% and a viability, T/C (second compound 0.3 µM, first compound 1 µM) of 7.59%. It also gave a viability, T/C (second compound 0.3 µM, first compound 3.16 µM) of 8.41% and a viability, T/C (second compound 0.3 µM, first compound 10 µM) of 8.2%.

With `CC(C)n1c(=O)n(C)c2cnc3cc(F)c(-c4ccc(OCCCN5CCCCC5)nc4)cc3c21` the viability, T/C (compound 0.0316 µM) was 139% and 106% and 97.2%, the viability, T/C (compound 0.1 µM) was 129% and 102% and 101% and the viability, T/C (compound 0.316 µM) was 118% and 97.2% and 96.5%. For the same compound, the viability, T/C (compound 1 µM) was 126% and 86.8% and 85.9%, the viability, T/C (compound 3.16 µM) was 113% and 76.4% and 76.1% and the viability, T/C (compound 10 µM) was 53.6% and 35.9% and 32.6%. The IC50 (curve of compound) was > 10000 nM and 6620 nM and 6220 nM.

In the case of `Cn1ncnc1[C@H]1c2n[nH]c(=O)c3cc(F)cc(c23)N[C@@H]1c1ccc(F)cc1` + Cn1nnc2c(C(N)=O)ncn2c1=O, the IC50 (curve of first compound, second compound 1 µM) is reported as 88.1 nM, the IC50 (curve of first compound, second compound 3.16 µM) is reported as 41.7 nM and the IC50 (curve of first compound, second compound 10 µM) is reported as 21.1 nM. The IC50 (curve of first compound, second compound 31.6 µM) was less than 9.49 nM, the IC50 (curve of first compound, second compound 100 µM) was less than 9.49 nM and the viability, T/C (second compound 1 µM, first compound 0.00949 µM) was 86.8%. For the same compound, the viability, T/C (second compound 1 µM, first compound 0.03 µM) was 68.6%, the viability, T/C (second compound 1 µM, first compound 0.0949 µM) was 52.6% and the viability, T/C (second compound 1 µM, first compound 0.3 µM) was 20.8%. For the same compound, the viability, T/C (second compound 1 µM, first compound 0.949 µM) was 10.8%, the viability, T/C (second compound 1 µM, first compound 3 µM) was 6.39% and the viability, T/C (second compound 3.16 µM, first compound 0.00949 µM) was 83%. For the same compound, the viability, T/C (second compound 3.16 µM, first compound 0.03 µM) was 50.1%, the viability, T/C (second compound 3.16 µM, first compound 0.0949 µM) was 45.6% and the viability, T/C (second compound 3.16 µM, first compound 0.3 µM) was 15.5%. The viability, T/C (second compound 3.16 µM, first compound 0.949 µM) was 9.89%, the viability, T/C (second compound 3.16 µM, first compound 3 µM) was 8.35% and the viability, T/C (second compound 10 µM, first compound 0.00949 µM) was 70.3%. It also gave a viability, T/C (second compound 10 µM, first compound 0.03 µM) of 41.2%, a viability, T/C (second compound 10 µM, first compound 0.0949 µM) of 15.4% and a viability, T/C (second compound 10 µM, first compound 0.3 µM) of 10.5%. For the same compound, the viability, T/C (second compound 10 µM, first compound 0.949 µM) was 8.29%, the viability, T/C (second compound 10 µM, first compound 3 µM) was 6.47% and the viability, T/C (second compound 31.6 µM, first compound 0.00949 µM) was 20.1%. It also gave a viability, T/C (second compound 31.6 µM, first compound 0.03 µM) of 10.9%, a viability, T/C (second compound 31.6 µM, first compound 0.0949 µM) of 9.75% and a viability, T/C (second compound 31.6 µM, first compound 0.3 µM) of 8.55%. For the same compound, the viability, T/C (second compound 31.6 µM, first compound 0.949 µM) was 7.6%, the viability, T/C (second compound 31.6 µM, first compound 3 µM) was 4.67% and the viability, T/C (second compound 100 µM, first compound 0.00949 µM) was 8.89%. It also gave a viability, T/C (second compound 100 µM, first compound 0.03 µM) of 7.52%, a viability, T/C (second compound 100 µM, first compound 0.0949 µM) of 8.61% and a viability, T/C (second compound 100 µM, first compound 0.3 µM) of 7.59%. It also gave a viability, T/C (second compound 100 µM, first compound 0.949 µM) of 6.58% and a viability, T/C (second compound 100 µM, first compound 3 µM) of 5.25%.
